How the values were obtained:
[1] = test system: Botryotinia fuckeliana (Botrytis cinerea); experiment: Botryotinia fuckeliana (Botrytis cinerea)/Liquid Culture (Gray Mould); type: cell-based; conditions: 200 ppm, liquid culture, compared to untreated control, 3-4 days after application, read-out: control of Botryotinia fuckeliana
Fusarium culmorum [2] = experiment: microbe, parasite or virus in culture; type: cell-based; conditions: read-out: control of Fusarium culmorum
Fusarium culmorum [3] = experiment: whole plant or invertebrate; type: in vivo; conditions: in Triticum aestivum, read-out: control of Fusarium culmorum
[4] = test system: Glomerella lagenarium (Colletotrichum lagenarium); experiment: Glomerella lagenarium (Colletotrichum lagenarium)/Liquid Culture (Anthracnose); type: cell-based; conditions: Colletotrichum orbiculare; 200 ppm; liquid culture, compared to untreated control, 3-4 days after application; read-out: control of Glomerella lagenarium
[5] = test system: Monographella nivalis (Microdochium nivale); experiment: Monographella nivalis (Microdochium nivale)/Liquid Culture (Foot Rot Cereals); type: cell-based; conditions: 200 ppm, liquid culture, compared to untreated control, 4-5 days after application, read-out: control of Monographella nivalis
[6] = test system: Magnaporthe grisea (Pyricularia oryzae); experiment: microbe, parasite or virus in culture; type: cell-based; conditions: read-out: control of Magnaporthe grisea

C[C@@](Cc1ccccc1)(CC(F)(F)F)C(=O)Nc1cnc2c(F)cccc2c1 (single isomer, unassigned) [Compound F-24]
≥ 80%: inhibition of growth at 200 ppm [1] | inhibition of growth at 200 ppm (Fusarium culmorum [2]) | pest or weed control at 200 ppm (Fusarium culmorum [3]) | inhibition of growth at 200 ppm [4] | inhibition of growth at 200 ppm [5] | inhibition of growth at 200 ppm [6]

C#CCC(C)(Cc1ccccc1)C(=O)Nc1cnc2c(F)cccc2c1C (centres unmarked) [Compound E-3, 2-benzyl-N-(8-fluoro-4-methyl-3-quinolyl)-2-methyl-pent-4-ynamide]
≥ 80%: inhibition of growth at 200 ppm [1] | inhibition of growth at 200 ppm (Fusarium culmorum [2]) | inhibition of growth at 200 ppm [4] | inhibition of growth at 200 ppm [5]

CC(C)CC(C)(Cc1cccc(F)c1)C(=O)Nc1cnc2c(F)cccc2c1 (centres unmarked) [Compound E-7, 2-[(3-fluorophenyl)methyl]-N-(8-fluoro-3-quinolyl)-2,4-dimethyl-pentanamide]
≥ 80%: inhibition of growth at 200 ppm [1] | inhibition of growth at 200 ppm (Fusarium culmorum [2]) | inhibition of growth at 200 ppm [4] | inhibition of growth at 200 ppm [5] | inhibition of growth at 200 ppm [6]

C=C(CC(C)(Cc1ccccc1)C(=O)Nc1cnc2c(F)cccc2c1)C(F)(F)F (centres unmarked) [Compound E-23, 2-benzyl-N-(8-fluoro-3-quinolyl)-2-methyl-4-(trifluoromethyl)pent-4-enamide]
≥ 80%: inhibition of growth at 200 ppm [1] | inhibition of growth at 200 ppm (Fusarium culmorum [2]) | inhibition of growth at 200 ppm [4] | inhibition of growth at 200 ppm [5] | inhibition of growth at 200 ppm [6]

C=C(C(Cc1ccccc1)C(=O)Nc1cnc2c(F)cccc2c1)C(F)(F)F (centres unmarked) [Compound E-24, 2-benzyl-N-(8-fluoro-3-quinolyl)-3-(trifluoromethyl)but-3-enamide]
≥ 80%: inhibition of growth at 200 ppm [1] | inhibition of growth at 200 ppm (Fusarium culmorum [2]) | inhibition of growth at 200 ppm [4] | inhibition of growth at 200 ppm [5] | inhibition of growth at 200 ppm [6]

C/C=C(\C)CC(C)(Cc1ccccc1)C(=O)Nc1cnc2c(F)cccc2c1 (centres unmarked) [Compound E-32, (E)-2-benzyl-N-(8-fluoro-3-quinolyl)-2,4-dimethyl-hex-4-enamide]
≥ 80%: inhibition of growth at 200 ppm [1] | inhibition of growth at 200 ppm (Fusarium culmorum [2]) | pest or weed control at 200 ppm (Fusarium culmorum [3]) | inhibition of growth at 200 ppm [4] | inhibition of growth at 200 ppm [5] | inhibition of growth at 200 ppm [6]

CC(CCC(F)F)(Cc1ccccc1)C(=O)Nc1cnc2c(F)cccc2c1 (centres unmarked) [Compound E-34, 2-benzyl-5,5-difluoro-N-(8-fluoro-3-quinolyl)-2-methyl-pentanamide]
≥ 80%: inhibition of growth at 200 ppm [1] | inhibition of growth at 200 ppm (Fusarium culmorum [2]) | inhibition of growth at 200 ppm [4] | inhibition of growth at 200 ppm [6]

CC(C)CC(Cc1ccccc1)C(=O)Nc1cnc2c(F)cccc2c1 (centres unmarked) [Compound E-35, 2-benzyl-N-(8-fluoro-3-quinolyl)-4-methyl-pentanamide]
≥ 80%: inhibition of growth at 200 ppm [1] | inhibition of growth at 200 ppm (Fusarium culmorum [2]) | pest or weed control at 200 ppm (Fusarium culmorum [3]) | inhibition of growth at 200 ppm [4] | inhibition of growth at 200 ppm [6]

CCC(C)CC(C)(Cc1ccccc1)C(=O)Nc1cnc2c(F)cccc2c1 (centres unmarked) [Compound E-36, 2-benzyl-N-(8-fluoro-3-quinolyl)-2,4-dimethyl-hexanamide]
≥ 80%: inhibition of growth at 200 ppm [1] | inhibition of growth at 200 ppm (Fusarium culmorum [2]) | inhibition of growth at 200 ppm [4] | inhibition of growth at 200 ppm [5] | inhibition of growth at 200 ppm [6]

Cc1nc2c(F)cccc2cc1NC(=O)C(C)(Cc1ccccc1)OC(C)C (centres unmarked) [Compound E-39, N-(8-fluoro-2-methyl-3-quinolyl)-2-isopropoxy-2-methyl-3-phenyl-propanamide]
≥ 80%: inhibition of growth at 200 ppm [1] | inhibition of growth at 200 ppm (Fusarium culmorum [2]) | pest or weed control at 200 ppm (Fusarium culmorum [3]) | inhibition of growth at 200 ppm [4] | inhibition of growth at 200 ppm [5] | inhibition of growth at 200 ppm [6]

CC(C)OC(C)(Cc1ccccc1)C(=O)Nc1cnc2c(F)cccc2c1 (centres unmarked) [Compound E-40, N-(8-fluoro-3-quinolyl)-2-isopropoxy-2-methyl-3-phenyl-propanamide]
≥ 80%: inhibition of growth at 200 ppm [1] | inhibition of growth at 200 ppm (Fusarium culmorum [2]) | pest or weed control at 200 ppm (Fusarium culmorum [3]) | inhibition of growth at 200 ppm [4] | inhibition of growth at 200 ppm [5] | inhibition of growth at 200 ppm [6]

COC(C)(Cc1ccccc1)C(=O)Nc1cc2cccc(F)c2nc1C (centres unmarked) [Compound E-41, N-(8-fluoro-2-methyl-3-quinolyl)-2-methoxy-2-methyl-3-phenyl-propanamide]
≥ 80%: inhibition of growth at 200 ppm [1] | inhibition of growth at 200 ppm (Fusarium culmorum [2]) | pest or weed control at 200 ppm (Fusarium culmorum [3]) | inhibition of growth at 200 ppm [4] | inhibition of growth at 200 ppm [5] | inhibition of growth at 200 ppm [6]

CC(Cc1ccccc1)(CC(F)F)C(=O)Nc1cnc2c(F)cccc2c1 (centres unmarked) [Compound E-55, 2-benzyl-4,4-difluoro-N-(8-fluoro-3-quinolyl)-2-methyl-butanamide]
≥ 80%: inhibition of growth at 200 ppm [1] | inhibition of growth at 200 ppm (Fusarium culmorum [2]) | pest or weed control at 200 ppm (Fusarium culmorum [3]) | inhibition of growth at 200 ppm [4] | inhibition of growth at 200 ppm [5] | inhibition of growth at 200 ppm [6]

CON(C(=O)C(C)(Cc1ccccc1)CC(C)C)c1cnc2c(F)cccc2c1 (centres unmarked) [Compound E-61, 2-benzyl-N-(8-fluoro-3-quinolyl)-N-methoxy-2,4-dimethyl-pentanamide]
≥ 80%: inhibition of growth at 200 ppm [1] | inhibition of growth at 200 ppm (Fusarium culmorum [2]) | inhibition of growth at 200 ppm [4] | inhibition of growth at 200 ppm [5] | inhibition of growth at 200 ppm [6]

C=C(C)CC(C)(Cc1ccccc1)C(=O)Nc1cnc2ccc(OC)cc2c1 (centres unmarked) [Compound E-62, 2-benzyl-N-(6-methoxy-3-quinolyl)-2,4-dimethyl-pent-4-enamide]
≥ 80%: inhibition of growth at 200 ppm [5]

O=C(Nc1cnc2ccccc2c1)C(Cc1ccccc1)CC(F)(F)F (centres unmarked) [Compound E-79, 2-benzyl-4,4,4-trifluoro-N-(3-quinolyl)butanamide]
≥ 80%: inhibition of growth at 200 ppm [1] | inhibition of growth at 200 ppm (Fusarium culmorum [2]) | inhibition of growth at 200 ppm [4] | inhibition of growth at 200 ppm [6]

Cc1nc2c(F)cccc2cc1NC(=O)C(C)(Cc1ccccc1)CC(C)C (centres unmarked) [Compound E-86, 2-benzyl-N-(8-fluoro-2-methyl-3-quinolyl)-2,4-dimethyl-pentanamide]
≥ 80%: inhibition of growth at 200 ppm [1] | inhibition of growth at 200 ppm (Fusarium culmorum [2]) | pest or weed control at 200 ppm (Fusarium culmorum [3]) | inhibition of growth at 200 ppm [4] | inhibition of growth at 200 ppm [5]

C#CCC(Cc1ccccc1)C(=O)Nc1cnc2c(F)cccc2c1C (centres unmarked) [Compound E-95]
≥ 80%: inhibition of growth at 200 ppm [1] | inhibition of growth at 200 ppm (Fusarium culmorum [2]) | inhibition of growth at 200 ppm [4] | inhibition of growth at 200 ppm [5]

C[C@@](Cc1ccccc1)(CC(F)(F)F)C(=O)Nc1cnc2c(F)c(F)ccc2c1 [Compound F-16, (2R)-2-benzyl-N-(7,8-difluoro-3-quinolyl)-4,4,4-trifluoro-2-methyl-butanamide]
≥ 80%: inhibition of growth at 200 ppm [1] | inhibition of growth at 200 ppm (Fusarium culmorum [2]) | inhibition of growth at 200 ppm [4] | inhibition of growth at 200 ppm [5] | inhibition of growth at 200 ppm [6]

Cc1cccc2cc(NC(=O)[C@@](C)(Cc3ccccc3)CC(F)(F)F)cnc12 [Compound F-17, (2S)-2-benzyl-4,4,4-trifluoro-2-methyl-N-(8-methyl-3-quinolyl)butanamide]
≥ 80%: inhibition of growth at 200 ppm [1] | inhibition of growth at 200 ppm (Fusarium culmorum [2]) | inhibition of growth at 200 ppm [4] | inhibition of growth at 200 ppm [5] | inhibition of growth at 200 ppm [6]

Cc1cccc2cc(NC(=O)[C@](C)(Cc3ccccc3)CC(F)(F)F)cnc12 [Compound F-18, (2R)-2-benzyl-4,4,4-trifluoro-2-methyl-N-(8-methyl-3-quinolyl)butanamide]
≥ 80%: inhibition of growth at 200 ppm [1] | inhibition of growth at 200 ppm (Fusarium culmorum [2]) | inhibition of growth at 200 ppm [4] | inhibition of growth at 200 ppm [5] | inhibition of growth at 200 ppm [6]

CC(C)C[C@](C)(Cc1ccccc1)C(=O)Nc1cnc2c(F)cccc2c1 [Compound F-19, (2R)-2-benzyl-N-(8-fluoro-3-quinolyl)-2,4-dimethyl-pentanamide]
≥ 80%: inhibition of growth at 200 ppm [1] | inhibition of growth at 200 ppm (Fusarium culmorum [2]) | pest or weed control at 200 ppm (Fusarium culmorum [3]) | inhibition of growth at 200 ppm [4]

Source: patent US10952436B2, “Microbiocidal quinoline (thio)carboxamide derivatives” (SYNGENTA PARTICIPATIONS AG, priority 2017, dated 2021)
